Test results from ChEMBL document CHEMBL4033800, “Further Developments of the Phenyl-Pyrrolyl Pentane Series of Nonsteroidal Vitamin D Receptor Modulators as Anticancer Agents” (J Med Chem, 2018).

How the values were obtained:
MCF7 = test: Antiproliferative activity against human MCF7 cells after 48 hrs by MTT assay; assay type: functional, cell-based; details: MCF7, 48 h
HepG2 = test: Antiproliferative activity against human HepG2 cells after 48 hrs by MTT assay; assay type: functional, cell-based; details: HepG2, 48 h
Caco-2 = test: Antiproliferative activity against human Caco2 cells after 48 hrs by MTT assay; assay type: functional, cell-based; details: Caco-2, 48 h
L02 = test: Antiproliferative activity against human L02 cells after 48 hrs by MTT assay; assay type: cell-based; details: L02, 48 h
PC-3 = test: Antiproliferative activity against human PC3 cells after 48 hrs by MTT assay; assay type: functional, cell-based; details: PC-3, 48 h

Structure (SMILES)	IC50 (MCF7) [µM]	IC50 (HepG2) [µM]	IC50 (Caco-2) [µM]	IC50 (L02) [µM]	IC50 (PC-3) [µM]
CCn1c(C(=O)N(C)CCO)ccc1C(CC)(CC)c1ccc(OCCC(O)(CC)CC)c(C)c1	2.87	0.51	0.074	2.05	3.09
CCn1c(C(=O)NCCN)ccc1C(CC)(CC)c1ccc(OCCC(O)(CC)CC)c(C)c1	0.67	1.59	1.74	2.94	2.42
CCOC(=O)CN(C)C(=O)c1ccc(C(CC)(CC)c2ccc(OCCC(O)(CC)CC)c(C)c2)n1CC	3.21	25.3	30.3	1.99	7.14
C#CC(C)OC(=O)c1ccc(C(CC)(CC)c2ccc(OCCC(O)(CC)CC)c(C)c2)n1CC (stereo not given)	> 50	> 50	> 50	> 50	14.8
C#CCCOC(=O)c1ccc(C(CC)(CC)c2ccc(OCCC(O)(CC)CC)c(C)c2)n1CC	> 50	> 50	> 50	> 50	> 50
CCn1c(C(=O)NC(CC(=O)O)C(=O)OC)ccc1C(CC)(CC)c1ccc(OCCC(O)(CC)CC)c(C)c1 (stereo not given)	10.2	10.7	25.2	7.59	11.2
CCn1c(C(=O)NC(C)CO)ccc1C(CC)(CC)c1ccc(OCCC(O)(CC)CC)c(C)c1 (stereo not given)	12.6	43.1	> 50	4.84	7.87
CCC(C)C(NC(=O)c1ccc(C(CC)(CC)c2ccc(OCCC(O)(CC)CC)c(C)c2)n1CC)C(=O)O (stereo not given)	11.3	2.62	20	9.99	13.8
CCn1c(C(=O)NC(C)C(=O)O)ccc1C(CC)(CC)c1ccc(OCCC(O)(CC)CC)c(C)c1 (stereo not given)	19.7	1.74	46.5	4.04	11.7
CCn1c(C(=O)NCCN(C)C)ccc1C(CC)(CC)c1ccc(OCCC(O)(CC)CC)c(C)c1	0.43	0.24	1.14	0.99	0.87
CCC(C)C(CO)NC(=O)c1ccc(C(CC)(CC)c2ccc(OCCC(O)(CC)CC)c(C)c2)n1CC (stereo not given)	29.1	> 50	> 50	> 50	28.4
CCn1c(C(=O)N(CCC#N)CCC#N)ccc1C(CC)(CC)c1ccc(OCCC(O)(CC)CC)c(C)c1	> 50	46.3	> 50	37.8	> 50
CCn1c(C(=O)Nc2ccc(OC(F)(F)F)cc2)ccc1C(CC)(CC)c1ccc(OCCC(O)(CC)CC)c(C)c1	> 50	> 50	> 50	> 50	> 50
CCn1c(C(=O)Nc2cccc(C(F)(F)F)c2)ccc1C(CC)(CC)c1ccc(OCCC(O)(CC)CC)c(C)c1	> 50	> 50	> 50	> 50	23.8
C=CCN(C)C(=O)c1ccc(C(CC)(CC)c2ccc(OCCC(O)(CC)CC)c(C)c2)n1CC	> 50	> 50	> 50	1.19	12.8
CCn1c(C(=O)Oc2ccc(CC(=O)OC)cc2)ccc1C(CC)(CC)c1ccc(OCCC(O)(CC)CC)c(C)c1	> 50	> 50	> 50	> 50	> 50
CCn1c(C(=O)NCCCN(C)C)ccc1C(CC)(CC)c1ccc(OCCC(O)(CC)CC)c(C)c1	3.35	0.11	0.49	2.42	2.15
CCC(C)C(NC(=O)c1ccc(C(CC)(CC)c2ccc(OCCC(O)(CC)CC)c(C)c2)n1CC)C(=O)OC (stereo not given)	> 50	> 50	> 50	> 50	> 50
